# Values joined by “and” are separate entries in the source; they are usually repeats but may differ in a detail not shown here. Equal entries are not always repeated.
# Assays:
# [1] = tested on: BD2 domain from BRD2, BRD3, or BRD4 / neddylated CRL2^KLHDC2; experiment: Pulse-chase PROTAC-dependent ubiquitylation of BRD BD2 domains by neddylated CRL2^KLHDC2; details: neddylated CRL2^KLHDC2 not subject to autoinhibition; Fig 3e
# [2] = target: BRD4 (Homo sapiens, UniProt O60885); experiment: Western blot of BRD4 levels after cellular dosing
# [3] = tested on: BRD proteins in U2OS KO/rescue lysate; experiment: Degradation in non-denaturing lysates of U2OS KO/rescue cells; details: non-denaturing U2OS KO/rescue lysate 4mg/ml, 10 µM, 30° C
# [4] = target: BRD3 (Homo sapiens, UniProt Q15059); experiment: Western blot of BRD3 levels after cellular dosing
# [5] = tested on: KLHDC2, KLHDC3, KLHDC10, KLHDC1 E3 ligases; details: ligand alone; Fig S5b, c
# [6] = Fig S6b, MDA-MB468 Cells, 10 uM
# BRD3, sequence (Q15059 whole entry): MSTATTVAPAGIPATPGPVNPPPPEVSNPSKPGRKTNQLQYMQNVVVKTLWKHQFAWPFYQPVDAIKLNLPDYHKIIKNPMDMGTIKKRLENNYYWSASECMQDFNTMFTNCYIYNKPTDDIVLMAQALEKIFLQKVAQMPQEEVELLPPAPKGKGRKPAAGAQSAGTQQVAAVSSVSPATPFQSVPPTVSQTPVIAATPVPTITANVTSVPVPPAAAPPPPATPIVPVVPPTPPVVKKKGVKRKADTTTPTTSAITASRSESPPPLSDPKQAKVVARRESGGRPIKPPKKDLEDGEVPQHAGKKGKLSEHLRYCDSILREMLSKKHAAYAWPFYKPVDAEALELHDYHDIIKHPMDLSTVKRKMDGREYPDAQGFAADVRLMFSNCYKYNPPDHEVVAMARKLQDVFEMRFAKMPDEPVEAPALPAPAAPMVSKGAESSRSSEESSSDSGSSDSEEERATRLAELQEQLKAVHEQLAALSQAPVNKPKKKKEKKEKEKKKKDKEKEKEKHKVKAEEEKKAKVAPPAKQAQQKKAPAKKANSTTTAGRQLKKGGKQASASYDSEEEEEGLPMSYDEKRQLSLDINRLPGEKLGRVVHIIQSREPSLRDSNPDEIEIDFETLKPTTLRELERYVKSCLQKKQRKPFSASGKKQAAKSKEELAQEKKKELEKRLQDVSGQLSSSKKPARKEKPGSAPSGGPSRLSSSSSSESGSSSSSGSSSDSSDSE
smiles,measurement,setting,value
Cc1sc2c(c1C)C(c1ccc(Cl)cc1)=N[C@@H](CC(=O)N1CCN(CCOc3cccc4ccc(-c5nc(CC(=O)NCC(=O)O)cs5)cc34)CC1)c1nnc(C)n1-2 [SJ46421],"polyubiquitylation of the BD2 domain from BRD2, BRD3, or BRD4",[1],able to promote polyubiquitylation
same,"BRD4 level, Western blot quantification (DMSO = 100)","[2]; Fig 6b, KO/Rescue, 5 uM",89.649 and 113.548
same,"BRD4 level, Western blot quantification (DMSO = 100)","[2]; Fig 6b, U2OS, 5 uM",119.505 and 104.107
same,"BRD4 level, Western blot quantification (DMSO = 100)","[2]; Fig S6a, 293T cells, 2.5 uM",98.5503 and 107.435
same,"BRD4 level, Western blot quantification (DMSO = 100)","[2]; Fig S6a, 293T cells, 5 uM",86.1267 and 99.7257
same,"BRD4 level, Western blot quantification (DMSO = 100)",[2]; [6],94.0762 and 99.1924
same,degrader dependent decrease in BRD protein levels in lysate,[3],did not observe a degrader dependent decrease
same,"BRD3 level, Western blot quantification (DMSO = 100)","[4]; Fig 6b, KO/Rescue, 5 uM",107.446 and 99.4453
same,"BRD3 level, Western blot quantification (DMSO = 100)","[4]; Fig 6b, U2OS, 5 uM",111.974 and 117.271
same,"BRD3 level, Western blot quantification (DMSO = 100)","[4]; Fig S6a, 293T cells, 2.5 uM",78.3969 and 86.4266
same,"BRD3 level, Western blot quantification (DMSO = 100)","[4]; Fig S6a, 293T cells, 5 uM",73.4789 and 84.2355
same,"BRD3 level, Western blot quantification (DMSO = 100)",[4]; [6],61.0904 and 82.4759
same,BRD degradation activity in U2OS cells,"[4]; wild-type U2OS, 24 h dose, Fig 6b",inactive
same,inhibition of substrate ubiquitylation by Kelch family E3 ligases other than KLHDC2,[5],largely inactive
